Test systems include OVCAR-3 ovarian; HOP-92 NSCLC; HL-60(TB) leukemia; A549 NSCLC; NCI-H226 lung; HCT-116 colon; A498 renal; SK-OV-3 ovarian; OVCAR-4 ovarian; SNB-19 CNS.
Holding throughout (test): growth of human tumour cells (NCI), 48 h

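Dose response: 5 concentrations. Exposure: 48 h. Format: 96-well plates. Endpoint: linear interpolation; highest concentration if not reached. GI50 marks 50% less growth. TGI marks complete inhibition of growth.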

With `CC1(C)C=CC[C@]2(C)[C@H]3CC[C@@H]4[C@H]5[C@H](C(=O)/C=C/c6cccnc6)CC[C@]5(CO)CC[C@@]4(C)[C@]3(C)CC[C@@H]12`, the GI50 was 1.37 µM in the test with OVCAR-3 ovarian; 0.66 µM with HOP-92 NSCLC; 0.304 µM in the test with HL-60(TB) leukemia; 0.972 µM with A549 NSCLC; 1.33 µM with NCI-H226 lung; 1.05 µM with HCT-116 colon. In addition, the GI50 in the test with A498 renal is 1.37 µM; with SK-OV-3 ovarian, 1.78 µM; with OVCAR-4 ovarian, 1.47 µM; in the test with SNB-19 CNS it was 1.49 µM. The TGI amounted to 2.71 µM with OVCAR-3 ovarian; 2.05 µM in the test with HOP-92 NSCLC; 1.89 µM in the test with HL-60(TB) leukemia; 2.49 µM in the test on A549 NSCLC; 3.08 µM in the test on NCI-H226 lung; 2.32 µM in the test with HCT-116 colon. The TGI with A498 renal stood at 2.72 µM; in the test on SK-OV-3 ovarian, 3.62 µM; in the test with OVCAR-4 ovarian it was 3.41 µM; with SNB-19 CNS, 2.84 µM.
Consider `COc1ccc(/C=C/c2cc(OC)c(OC)c(OC)c2)cc1NC(=O)/C=C/c1ccc(F)cc1`, for which the GI50 in the test with OVCAR-3 ovarian was 2.43 µM; in the test with HOP-92 NSCLC it was 4.36 µM; in the test with HL-60(TB) leukemia, 1.8 µM; in the test on A549 NSCLC, 3.41 µM; in the test with NCI-H226 lung, 3.82 µM; with HCT-116 colon it was 3.98 µM. In addition, the GI50 in the test on A498 renal is 0.0352 µM; in the test on SK-OV-3 ovarian, 0.0441 µM; in the test on OVCAR-4 ovarian it was 5.95 µM; in the test on SNB-19 CNS, 4.37 µM. Moreover, the TGI is 6.23 µM in the test on OVCAR-3 ovarian; greater than 100 µM in the test with HOP-92 NSCLC; 7.47 µM in the test on HL-60(TB) leukemia; greater than 100 µM in the test with A549 NSCLC; 89 µM with NCI-H226 lung; greater than 100 µM in the test with HCT-116 colon. For the same compound, the TGI in the test on SK-OV-3 ovarian is 0.782 µM; in the test with OVCAR-4 ovarian it was greater than 100 µM; in the test on SNB-19 CNS, greater than 100 µM.
With `O=C1C(Br)=C[C@H]2C3C=CC(Br)(C3=O)[C@@H]12` (some centres undefined), the TGI in the test with OVCAR-3 ovarian was found to be 27.1 µM; in the test on HOP-92 NSCLC, 29.7 µM; in the test on HL-60(TB) leukemia, 23 µM; in the test on A549 NSCLC, 76.9 µM; in the test on NCI-H226 lung, 40.9 µM; with HCT-116 colon, 22.8 µM. The TGI in the test on A498 renal is 37.9 µM; with SK-OV-3 ovarian it was greater than 100 µM; in the test on OVCAR-4 ovarian, 29.4 µM; with SNB-19 CNS it was 32.6 µM.
In the case of `Cc1cc2nc3c(=O)n(C)c(=O)nc-3n(-c3ccc(Cl)cc3)c2cc1C`, the TGI came out at 8.81 µM in the test with OVCAR-3 ovarian; 34 µM with HOP-92 NSCLC; 24.3 µM in the test with HL-60(TB) leukemia; 16.4 µM in the test on A549 NSCLC; 37.6 µM in the test with NCI-H226 lung; 33.6 µM in the test on HCT-116 colon. In addition, the TGI with A498 renal was found to be 89.8 µM; in the test with SK-OV-3 ovarian, 67.4 µM; with OVCAR-4 ovarian, 19.8 µM; in the test on SNB-19 CNS, 47 µM.
On to `O=[N+]([O-])c1ccc2[nH]cc(-c3c4ccsc4cc4[nH]c5ccc([N+](=O)[O-])cc5c34)c2c1`, for which the GI50 in the test on OVCAR-3 ovarian is 0.354 µM; in the test with HOP-92 NSCLC, 0.882 µM; with HL-60(TB) leukemia it was 1.1 µM; in the test on A549 NSCLC it was 1.12 µM; with NCI-H226 lung, 0.967 µM; with HCT-116 colon, 0.865 µM. Further, the GI50 with A498 renal was 0.726 µM; in the test with SK-OV-3 ovarian it was 1.25 µM; in the test on OVCAR-4 ovarian, 1.8 µM; in the test on SNB-19 CNS it was 1.32 µM. The TGI came out at 1.44 µM in the test on OVCAR-3 ovarian; 6.94 µM with HOP-92 NSCLC; 19.4 µM in the test with HL-60(TB) leukemia; 5.4 µM with A549 NSCLC; 3.95 µM in the test with NCI-H226 lung; 5.37 µM in the test on HCT-116 colon. Besides, the TGI in the test on A498 renal was found to be 3.13 µM; in the test on SK-OV-3 ovarian it was 7.21 µM; in the test with OVCAR-4 ovarian, 9.38 µM; in the test on SNB-19 CNS it was 9.13 µM.
For the compound `CC1=CSC2=NC(c3ccc(Cl)c(Cl)c3)=CC(c3ccc(Cl)cc3)N12` (centres undefined), the GI50 in the test with OVCAR-3 ovarian, in the test on HOP-92 NSCLC, in the test on HL-60(TB) leukemia, with A549 NSCLC, in the test with NCI-H226 lung and in the test with HCT-116 colon was greater than 100 µM each time. Moreover, the GI50 with A498 renal, in the test with SK-OV-3 ovarian, in the test on OVCAR-4 ovarian and with SNB-19 CNS was greater than 100 µM in each case. The TGI with OVCAR-3 ovarian, in the test on HOP-92 NSCLC, in the test on HL-60(TB) leukemia, in the test with A549 NSCLC, in the test on NCI-H226 lung and in the test with HCT-116 colon was greater than 100 µM in each case. Moreover, the TGI in the test on A498 renal, in the test on SK-OV-3 ovarian, with OVCAR-4 ovarian and with SNB-19 CNS was greater than 100 µM each time.
Regarding `CC(=O)O[C@H]1C(N(C)C(=O)c2ccccc2)CC[C@]2(C)C3CC[C@@]4(C)C(CC(O)[C@@H]4C(C)N(C)C)[C@@H]3CCC12` (some centres undefined), the TGI with OVCAR-3 ovarian, in the test on HOP-92 NSCLC, in the test with HL-60(TB) leukemia, with A549 NSCLC, in the test on NCI-H226 lung and in the test on HCT-116 colon was greater than 100 µM in each case. For the same compound, the TGI in the test on A498 renal, in the test with SK-OV-3 ovarian, in the test with OVCAR-4 ovarian and with SNB-19 CNS was greater than 100 µM in each case.

The record behind these values is PubChem BioAssay (NCI).
